The results in this text go back to patent US8506950B2, “Degradable microcapsules” (ETH Zurich, priority 2008, dated 2013).

This experiment concerns the target rLHR (Rattus norvegicus, UniProt P16235). The experiment in a line: bLH-dependent disruption of CS/pDADMAC microcapsules containing CK04 cells transfected with pCK71. To be noted: 500 ng/ml bLH, 24 hours post-induction. Also on record: Full-length cDNAs encoding the LHRs of rat (r) and bovine (b) origin; expressed in transfected cells; host or cells: CK04: HEK293T stably cotransfected with pLEN-rLHR and pZeoSV2(+), clone 6. The class given is cell-based. As for the experimental part:
(A) Phase-contrast photomicrographs of CS/pDADMAC encapsulated CK04 cells transiently transfected for PCRE controlled cellulase expression (pCK71, PCRE-cellulase-pA). The microcapsules were cultured in the absence or presence of 500 ng/ml bLH. In the presence of bLH the capsules were disrupted by the induced expression of cellulase whereas the non-induced capsules remained intact. Arrows indicate the disrupted capsules.
(B) Quantification of microcapsule disruption. Per sample approximately 150 capsules were counted and the amount of capsule disruption was calculated. 24 hours post-induction 98% of the capsules were disrupted by the induced cellulase. […]
Cells were encapsulated using the Inotech Encapsulator Research Unit IE-50R (Inotech Biotechnologies Ltd, Basel, Switzerland). […] The cells were counted using a Casy Counter (Scharfe Systems, Reutlingen, Germany) and 1×10^6 cells were resuspended in sodium […] sulfate solution (2% (w/v) in PBS, CS, Euroferm, Erlangen, Germany, Batch-No: FCY-06A) and aseptically encapsulated according to the standard protocol using the following settings: 0.2 mm nozzle with a nozzle vibration frequency of 1250 Hz, 20 ml syringe at a flow rate of 410 units, voltage for bead dispersion 1.15 kV. […]

rLHR, sequence (P16235 27-700): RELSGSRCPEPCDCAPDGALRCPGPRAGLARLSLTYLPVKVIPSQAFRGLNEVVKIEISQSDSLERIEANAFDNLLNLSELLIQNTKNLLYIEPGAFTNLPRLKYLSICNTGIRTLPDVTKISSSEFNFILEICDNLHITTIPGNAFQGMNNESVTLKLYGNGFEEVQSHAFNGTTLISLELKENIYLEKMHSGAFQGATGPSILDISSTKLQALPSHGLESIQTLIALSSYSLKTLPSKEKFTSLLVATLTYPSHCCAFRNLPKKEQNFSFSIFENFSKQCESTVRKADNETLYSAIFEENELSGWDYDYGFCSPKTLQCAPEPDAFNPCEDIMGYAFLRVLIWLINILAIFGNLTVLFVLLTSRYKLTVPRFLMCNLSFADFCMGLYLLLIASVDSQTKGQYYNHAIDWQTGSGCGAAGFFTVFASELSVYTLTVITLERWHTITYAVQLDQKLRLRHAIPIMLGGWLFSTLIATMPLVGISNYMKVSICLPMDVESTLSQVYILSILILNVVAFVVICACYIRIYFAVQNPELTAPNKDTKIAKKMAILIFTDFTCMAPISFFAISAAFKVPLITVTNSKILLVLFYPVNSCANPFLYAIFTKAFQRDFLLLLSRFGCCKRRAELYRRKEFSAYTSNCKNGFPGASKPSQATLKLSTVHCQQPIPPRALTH

bovine luteinizing hormone [bLH] came in with a disrupted capsules of 98%.
